Experimental data from patent publication US8329899B2, “Pyrazole compounds that modulate HSP90 activity” (Synta Pharmaceuticals, Corp., priority 2005, dated 2012).

Test system: Her2
Experiment: Degradation of Her2 in BT-474 cells, Method 1 (Western blot)
Type: cell-based, Human
Settings: 0.5 μM, overnight
Experimental: Human high-Her2 breast carcinoma BT474 (HTB-20), SK-BR-3 (HTB-30) and MCF-7 breast carcinoma (HTB-22) from American Type Culture Collection, Va., USA were grown in Dulbecco's modified Eagle's medium with 4 mM L-glutamine and antibiotics (100 IU/ml penicillin and 100 ug/ml streptomycine; GibcoBRL). To obtain exponential cell growth, cells were trypsinized, counted and seeded at a cell density of 0.5×10^6 cells/ml regularly, every 3 days. All experiments were performed on day 1 after cell passage.
BT-474 cells are treated with 0.5 μM, 2 μM, or 5 μM of 17AAG (a positive control) or 0.5 μM, 2 μM, or 5 μM of a compound of the invention overnight in DMEM medium. After treatment, each cytoplasmic sample is prepared from 1×10^6 cells by incubation of cell lysis buffer (#9803, cell Signaling Technology) on ice for 10 minutes. The resulting supernatant used as the cytosol fractions is dissolved with sample buffer for SDS-PAGE and run on a SDS-PAGE gel, blotted onto a nitrocellulose membrane by using semi-dry transfer. Non-specific binding to nitrocellulose is blocked with 5% skim milk in TBS with 0.5% Tween at room temperature for 1 hour, then probed with anti-Her2/ErB2 mAb (rabbit IgG, #2242, Cell Signaling) and anti-Tubulin (T9026, Sigma) as housekeeping control protein. […]

C=CCNC1=C2C[C@@H](C)C[C@H](OC)[C@H](O)[C@@H](C)/C=C(\C)[C@H](OC(N)=O)[C@@H](OC)/C=C\C=C(/C)C(=O)NC(=CC1=O)C2=O [Compound 17AAG]
degradation of Her2: partial degradation
